Positions of bridges follow the written chain, without caps; N, C: chain ends. Non-standard residues stand in square brackets, D forms with d. Residues, ends and D or L forms follow the SMILES beside them. Chains are numbered I, II in the order given. *: point of attachment. NOTA = O=C(O)CN1CCN(CC(=O)O)CCN(CC(=O)*)CC1
Experiments:
[1] = In vivo radiometabolite analysis in plasma and urine; set-up: species or system mouse; details: wild-type mice
Description: Plasma samples were obtained by decapitation 15 min p.i. (n = 2). Blood was collected in EDTA tubes and centrifuged for 5 min at 3000× g. Subsequently, plasma was removed and diluted (1:2) with acetonitrile to precipitate all plasma proteins. After centrifugation (5 min at 3000× g), the supernatant was diluted (1:10) with water and filtered (0.22 µm) before injection on radioHPLC. Urine samples were collected 75 min p.i. (n = 3) by gently pressing on the bladder. The collected urine was filtered (0.22 µm) before injection on radioHPLC. Due to low radioactivity concentration in the plasma samples, 30 fractions of 30 s per plasma sample were collected. Radioactivity in the fractions was determined in an automated gamma counter.

[2] = Ex vivo biodistribution in wild-type mice; details: mouse, total radioactivity, 75 min p.i., ex vivo gamma counting, mean ± SD
Description: The in vivo pharmacokinetics of the selected radioligands were first evaluated in wild-type mice by performing a whole-body biodistribution study. […] Blood and major organs were collected in tared tubes and weighed. Quantification of radioactivity in blood, organs, and other body parts was performed using an automated gamma counter equipped with a 3-inch NaI(Tl) well crystal coupled to a multichannel analyzer, mounted in a sample changer (2480 Wizard^2, Perkin Elmer, Waltham, MA, USA). Counts were corrected for background radiation, physical decay and counter dead time. Results are presented as standardized uptake values (SUV; tissue activity concentration (MBq/g)/[injected dose (MBq)/body weight (g)]).

[3] = PET/CT imaging in wild-type mice; format: in vivo, mouse; details: dynamic PET 0–60 min p.i., AMD3100 5 mg/kg
Description: Dynamic PET images were acquired for 60 min immediately after intravenous injection using a beta-cube PET scanner (Molecubes, Gent, Belgium). The mice were kept under gas anesthesia during the entire procedure (2.5% isoflurane in O2 at 1 L/min flow rate), with temperature and respiration monitored throughout. After PET scanning, a CT image was acquired for anatomic coregistration with an X-cube CT scanner (Molecubes, Gent, Belgium), using the ‘general’ protocol with the following parameters: 50 kVp, 480 exposures, 85 ms/projection, 100 μA tube current, rotation time 60 s. After scanning, mice were sacrificed 75 min p.i. and a whole-body biodistribution study was performed.
PET data were histogrammed into 14 frames (4 × 15 s, 4 × 1 min, 1 × 5 min, 5 × 10 min) and reconstructed into a 192 × 192 image matrix with 0.4 mm voxels using 30 iterations the native MLEM algorithm with corrections for randoms, scatter, attenuation and decay. CT Data were reconstructed using a regularized statistical (iterative) image reconstruction algorithm using non-negative least squares, using an isotropic 200 μm voxel size and scaled to Hounsfield Units (HUs) after calibration against a standard air/water phantom. […] Radiotracer uptake at 60 min, expressed as SUVmean, was the outcome measure.

[4] = tested on: U87.hCXCR4 tumor-bearing mice; experiment: Ex vivo biodistribution in U87.hCXCR4 tumor-bearing mice; set-up: species or system mouse; details: 75 min p.i., mean ± SD
[5] = as above; set-up: species or system mouse; details: female, SCID (CB17.Cg-Prkdc<scid>Lyst<bg-J>/Crl), mouse, iv, total radioactivity, 75 min p.i., mean ± SD
[6] = co-injected AMD3100 5 mg/kg (157 nmol), n = 4
[7] = co-injected DV1-k-(DV3) 7 nmol, n = 3
[8] = co-injected DV1-k-(DV3) 14 nmol, n = 4
[9] = co-injected DV1-k-(DV3) 24 nmol, n = 4
[10] = SUV ratio, co-injected AMD3100 5 mg/kg (157 nmol), n = 4
[11] = SUV ratio, co-injected DV1-k-(DV3) 7 nmol, n = 3
[12] = SUV ratio, co-injected DV1-k-(DV3) 24 nmol, n = 4

CC(C)C[C@@H](N)C(=O)NCC(=O)N[C@H](C)C(=O)N[C@H](CO)C(=O)N[C@H](Cc1c[nH]c2ccccc12)C(=O)N[C@H](Cc1c[nH]cn1)C(=O)N[C@H](CCCNC(=N)N)C(=O)N1CCC[C@@H]1C(=O)N[C@H](CC(=O)O)C(=O)N[C@H](CCCCNC(=O)CN1CCN(CC(=O)O)CCN(CC(=O)O)CC1)C(=O)NCCCC[C@@H](NC(=O)[C@H]1CCCN1C(=O)[C@@H](CC(C)C)NC(=O)[C@H]1CCCN1C(=O)[C@@H](CCCNC(=N)N)NC(=O)[C@@H](CCCCN)NC(=O)[C@@H](CCC(N)=O)NC(=O)[C@@H](Cc1ccc(O)cc1)NC(=O)CNC(=O)[C@@H](CC(C)C)NC(=O)[C@@H](CS)NC(=O)[C@@H](CS)NC(=O)[C@@H](CCCCN)NC(=O)[C@@H](CC(=O)O)NC(=O)[C@H]1CCCN1C(=O)[C@@H](CCCNC(=N)N)NC(=O)[C@@H](Cc1c[nH]cn1)NC(=O)[C@@H](Cc1c[nH]c2ccccc12)NC(=O)[C@@H](CO)NC(=O)[C@@H](C)NC(=O)CNC(=O)[C@H](N)CC(C)C)C(=O)O [[^18F]AlF-NOTA-DV1-k-(DV3)] (I: H-[dL]G[dA][dS][dW][dH][dR][dP][dD][dK][dC][dC][dL]G[dY][dQ][dK][dR][dP][dL][dP][dK]-OH / II: H-[dL]G[dA][dS][dW][dH][dR][dP][dD][dK](NOTA); amide I:22-II:C)
parent (intact) radioligand in plasma ([1]; i.v., plasma 15 min p.i., radioHPLC fractions, gamma counter, n = 2): 86 ± 0.1%
parent (intact) radioligand in urine ([1]; i.v., urine 75 min p.i., radioHPLC, n = 3): 37 ± 2%
polar metabolites in plasma ([1]; plasma 15 min p.i., n = 2): 14 ± 0.1%
polar metabolites in urine ([1]; urine 75 min p.i., n = 3): 63 ± 2%
SUV at 1.25 h ([2]; blood, + AMD3100 5 mg/kg, n: PentixaFor 1, 18F 2, 68Ga 4, 177Lu 3, read-out: blood uptake): 0.5 SUV
SUV at 1.25 h ([2]; blood, tracer alone, n: PentixaFor 3, 18F 5, 68Ga 4, 177Lu 3, read-out: blood uptake): 0.2 ± 0.1 SUV
SUV at 1.25 h ([2]; bone (femur harboring bone marrow), tracer alone, n: PentixaFor 3, 18F 5, 68Ga 4, 177Lu 3, read-out: bone uptake (femur harboring bone marrow)): 0.7 ± 0.4 SUV
SUV at 1.25 h ([2]; brain, + AMD3100 5 mg/kg, n: PentixaFor 1, 18F 2, 68Ga 4, 177Lu 3, read-out: brain uptake): 0.02 SUV
SUV at 1.25 h ([2]; brain, tracer alone, n: PentixaFor 3, 18F 5, 68Ga 4, 177Lu 3, read-out: brain uptake): 0.01 ± 0.003 SUV
SUV at 1.25 h ([2]; heart, + AMD3100 5 mg/kg, n: PentixaFor 1, 18F 2, 68Ga 4, 177Lu 3, read-out: heart uptake): 0.2 SUV
SUV at 1.25 h ([2]; heart, tracer alone, n: PentixaFor 3, 18F 5, 68Ga 4, 177Lu 3, read-out: heart uptake): 0.2 ± 0.1 SUV
SUV at 1.25 h ([2]; kidneys, + AMD3100 5 mg/kg, n: PentixaFor 1, 18F 2, 68Ga 4, 177Lu 3, read-out: kidneys uptake): 35.4 SUV
SUV at 1.25 h ([2]; kidneys, tracer alone, n: PentixaFor 3, 18F 5, 68Ga 4, 177Lu 3, read-out: kidneys uptake): 23.2 ± 3.9 SUV
SUV at 1.25 h ([2]; liver, + AMD3100 5 mg/kg, n: PentixaFor 1, 18F 2, 68Ga 4, 177Lu 3, read-out: liver uptake): 1 SUV
SUV at 1.25 h ([2]; liver, tracer alone, n: PentixaFor 3, 18F 5, 68Ga 4, 177Lu 3, read-out: liver uptake): 7.4 ± 0.5 SUV
SUV at 1.25 h ([2]; lungs, + AMD3100 5 mg/kg, n: PentixaFor 1, 18F 2, 68Ga 4, 177Lu 3, read-out: lungs uptake): 0.8 SUV
SUV at 1.25 h ([2]; lungs, tracer alone, n: PentixaFor 3, 18F 5, 68Ga 4, 177Lu 3, read-out: lungs uptake): 0.8 ± 0.2 SUV
SUV at 1.25 h ([2]; pancreas, + AMD3100 5 mg/kg, n: PentixaFor 1, 18F 2, 68Ga 4, 177Lu 3, read-out: pancreas uptake): 0.1 SUV
SUV at 1.25 h ([2]; pancreas, tracer alone, n: PentixaFor 3, 18F 5, 68Ga 4, 177Lu 3, read-out: pancreas uptake): 0.1 ± 0.02 SUV
SUV at 1.25 h ([2]; spleen, + AMD3100 5 mg/kg, n: PentixaFor 1, 18F 2, 68Ga 4, 177Lu 3, read-out: spleen uptake): 0.9 SUV
SUV at 1.25 h ([2]; spleen, tracer alone, n: PentixaFor 3, 18F 5, 68Ga 4, 177Lu 3, read-out: spleen uptake): 3.2 ± 0.8 SUV
kidney uptake on co-injection of AMD3100 [3]: increased with a factor of two
liver retention on co-injection of AMD3100 [3]: completely blocked
bone uptake [4, 6]: 0.1 ± 0.04 SUV
spleen uptake [4, 6]: 0.5 ± 0.1 SUV
bone uptake ([4]; co-injected AMD3100 5 mg/kg (157 nmol), n = 4, listed as [18F]AlF-NOTA-DV1-k-(DV3)): 0.1 ± 0.04 SUV
bone uptake [4, 7]: 0.2 ± 0.04 SUV
liver uptake [4, 7]: 1.2 ± 0.1 SUV
bone uptake [4, 8]: 0.3 ± 0.1 SUV
liver uptake [4, 8]: 1.2 ± 0.4 SUV
bone uptake [4, 9]: 0.2 ± 0.04 SUV
liver uptake [4, 9]: 0.7 ± 0.1 SUV
tumor-to-blood ratio (t/blood) [4, 10]: 1.7 ± 0.5
tumor-to-liver ratio (t/liver) [4, 10]: 0.5 ± 0.2
tumor-to-liver ratio (t/liver) [4, 11]: 0.6 ± 0.1
tumor-to-muscle ratio (t/muscle) [4, 11]: 5.4 ± 2.2
tumor-to-muscle ratio (t/muscle) ([4]; SUV ratio, co-injected DV1-k-(DV3) 14 nmol, n = 4): 4.8 ± 2.1
tumor-to-liver ratio (t/liver) [4, 12]: 0.9 ± 0.2
tumor-to-muscle ratio (t/muscle) [4, 12]: 3.0 ± 0.4
SUV at 1.25 h ([5]; blood, co-injected DV1-k-(DV3) 7 nmol, n = 3, read-out: blood uptake): 0.4 ± 0.2 SUV
SUV at 1.25 h ([5]; blood, co-injected DV1-k-(DV3) 14 nmol, n = 4, read-out: blood uptake): 0.5 ± 0.3 SUV
SUV at 1.25 h ([5]; blood, tracer alone (0 nmol), n = 4, read-out: blood uptake): 0.1 ± 0.1 SUV
SUV at 1.25 h ([5]; blood, with AMD3100 5 mg/kg (157 nmol), co-injected, co-injected AMD3100 5 mg/kg (157 nmol), n = 4, read-out: blood uptake): 0.3 ± 0.2 SUV
SUV at 1.25 h ([5]; bone, co-injected AMD3100 5 mg/kg (157 nmol), n = 4, read-out: bone uptake): 0.1 ± 0.04 SUV
SUV at 1.25 h ([5]; bone, co-injected DV1-k-(DV3) 7 nmol, n = 3, read-out: bone uptake): 0.2 ± 0.04 SUV
SUV at 1.25 h ([5]; bone, co-injected DV1-k-(DV3) 14 nmol, n = 4, read-out: bone uptake): 0.3 ± 0.1 SUV
SUV at 1.25 h ([5]; bone, co-injected DV1-k-(DV3) 24 nmol, n = 4, read-out: bone uptake): 0.2 ± 0.04 SUV
SUV at 1.25 h ([5]; bone, tracer alone (0 nmol), n = 4, read-out: bone uptake): 0.4 ± 0.1 SUV
SUV at 1.25 h ([5]; brain, co-injected AMD3100 5 mg/kg (157 nmol), n = 4, read-out: brain uptake): 0.01 ± 0.004 SUV
SUV at 1.25 h ([5]; brain, co-injected DV1-k-(DV3) 7 nmol, n = 3, read-out: brain uptake): 0.02 ± 0.01 SUV
SUV at 1.25 h ([5]; brain, co-injected DV1-k-(DV3) 14 nmol, n = 4, read-out: brain uptake): 0.03 ± 0.01 SUV
SUV at 1.25 h ([5]; brain, co-injected DV1-k-(DV3) 24 nmol, n = 4, read-out: brain uptake): 0.02 ± 0.01 SUV
SUV at 1.25 h ([5]; brain, tracer alone (0 nmol), n = 4, read-out: brain uptake): 0.01 ± 0.001 SUV
SUV at 1.25 h ([5]; heart, co-injected AMD3100 5 mg/kg (157 nmol), n = 4, read-out: heart uptake): 0.1 ± 0.1 SUV
SUV at 1.25 h ([5]; heart, co-injected DV1-k-(DV3) 7 nmol, n = 3, read-out: heart uptake): 0.2 ± 0.1 SUV
SUV at 1.25 h ([5]; heart, co-injected DV1-k-(DV3) 14 nmol, n = 4, read-out: heart uptake): 0.3 ± 0.1 SUV
SUV at 1.25 h ([5]; heart, co-injected DV1-k-(DV3) 24 nmol, n = 4, read-out: heart uptake): 0.2 ± 0.1 SUV
SUV at 1.25 h ([5]; heart, tracer alone (0 nmol), n = 4, read-out: heart uptake): 0.1 ± 0.04 SUV

Source: publication PMC8537445, “D-Peptide-Based Probe for CXCR4-Targeted Molecular Imaging and Radionuclide Therapy” (Pharmaceutics, 2021)
